Experimental data: PubChem BioAssay (NCI)
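Cultured in 96-well plates, cells were exposed to test compound for 48 hours across five concentrations. GI50: concentration for 50% inhibition of growth. At the TGI there is no net growth.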

Legend:
Assay in all cases: inhibition of tumour cell growth, NCI panel, 48 h
HOP-92 NSCLC = system: HOP-92 NSCLC
MOLT-4 leukemia = system: MOLT-4 leukemia
HCT-15 colon = system: HCT-15 colon
SW-620 colon = system: SW-620 colon
SF-295 CNS = system: SF-295 CNS
U251 CNS = system: U251 CNS
NCI-H522 lung = system: NCI-H522 lung
OVCAR-4 ovarian = system: OVCAR-4 ovarian
COLO 205 colon = system: COLO 205 colon
RPMI-8226 leukemia = system: RPMI-8226 leukemia

Compound	TGI (HOP-92 NSCLC) [µM]	TGI (MOLT-4 leukemia) [µM]	TGI (HCT-15 colon) [µM]	TGI (SW-620 colon) [µM]	TGI (SF-295 CNS) [µM]	TGI (U251 CNS) [µM]	TGI (NCI-H522 lung) [µM]	TGI (OVCAR-4 ovarian) [µM]	TGI (COLO 205 colon) [µM]	TGI (RPMI-8226 leukemia) [µM]	GI50 (HOP-92 NSCLC) [µM]	GI50 (MOLT-4 leukemia) [µM]	GI50 (HCT-15 colon) [µM]	GI50 (SW-620 colon) [µM]	GI50 (SF-295 CNS) [µM]	GI50 (NCI-H522 lung) [µM]	GI50 (OVCAR-4 ovarian) [µM]	GI50 (COLO 205 colon) [µM]	GI50 (RPMI-8226 leukemia) [µM]	GI50 (U251 CNS) [µM]
CCOS(=O)(=O)c1ccc(-c2c3nc(c(-c4ccc(S(=O)(=O)OCC)cc4)c4ccc([nH]4)c(-c4ccc(S(=O)(=O)OCC)cc4)c4nc(c(-c5ccc(S(=O)(=O)OCC)cc5)c5ccc2[nH]5)C=C4)C=C3)cc1	> 100	> 31.6	> 31.6	> 31.6	> 31.6	> 31.6	> 31.6	> 31.6	> 31.6	> 31.6										
CC(=O)[C@@]1(c2ccccc2)CC2(CCN(C)CC2)O[C@H]1C	> 100	> 100	> 100	> 100	> 100	> 100	> 100	> 100	> 100	> 100										
N#CC1=C(N)N(/N=C/c2ccco2)C(c2ccco2)C1(C#N)C#N (configuration not stated)	33.5	30.3	38.8	24.5	79	36.1	31.1	32.5	28.9	44										
CN(C)CC1CCC/C(=C\c2ccc(OC(=O)/C=C/c3ccc(Cl)cc3)cc2)C1=O (configuration not stated)	4.34	2.86	6.91	6.44	19.7	9.97	1.91	35.9	2.79	1.8										
C(=N\NC1=NCCN1)/c1ccc2ccccc2c1	13.3	42.8	43.6	32.6	29.9	29.8	29.6	54.3	20.4	49.4										
COc1ccc(NC(=O)C(=O)Cc2ccc([N+](=O)[O-])c([N+](=O)[O-])c2CC(=O)C(=O)Nc2ccc(OC)cc2OC)c(OC)c1	> 100	> 100	> 100	> 100	> 100	> 100	> 100	> 100	> 100	> 100										
O=c1c2c3c(sc2nc2n1NC=NN2)CCCC3	38.5	31.7	37.5	38.7	30.2	35	36.4	34.1	55.3	50.6										
CC[C@]12C=CCN3CC[C@@]4(c5cc(Br)c(OC)cc5N(C)[C@H]4[C@@](O)(C(=O)NC(Cc4c[nH]c5ccccc45)C(=O)OC)[C@@H]1O)[C@@H]32 (some centres not stated)	> 100	> 100	> 100	> 100	> 100	> 100	> 100	> 100	21	46.3										
O=C1CC(c2ccccc2)n2c(nc3ccccc32)N1 (configuration not stated)	> 100	> 100	> 100	> 100	> 100	> 100	> 100	> 100	> 100	> 100										
COC(=O)C1(Cc2ccccc2)Cc2cc3c(cc2C1O)CCC3 (configuration not stated)	30.6	42.9	> 100	30	72		34.4	41.7	48.1	54.9										
CC1CN(CCO)CCN1c1ccccc1 (configuration not stated)	> 100	> 100	> 100	> 100	> 100	> 100	> 100	> 100	> 100	> 100										
COc1ccc2c3/c(=C\c4ccc(N(C)C)cc4)c4ccccc4n3[n+](C)c2c1	1.78	27.9	> 100	> 100		> 100	> 100	6.46	0.757	0.136	0.236	0.0944	0.475	0.0438	0.202	0.182	0.987	0.029	< 0.0112	
CCNC(=S)NNC(=O)c1ccccc1Nc1ccccc1C(=O)NNC(=S)NCC	> 100	> 100	> 100	> 100	> 100	> 100	> 100	> 100	> 100	> 100										
COC(=O)C12Oc3ccc(-c4ccc5c(c4O)C(O)=C4C(=O)CC(C)C(O)C4(C(=O)OC)O5)c(O)c3C(O)=C1C(=O)CC(C)C2O (configuration not stated)	> 22.7	2.9	> 100	> 100	1.84	3.05	0.309	> 100	0.195	0.31										
COc1ccc(C2=NNC(=O)c3ccccc3N2c2nc(-c3cccs3)nc3cc(OC)c(OC)cc23)cc1	7.97	> 100	> 100	> 100	9.9	33.3	88	4.49	> 100	> 100										
CC(NNC(=O)c1ccncc1)c1cccc(C(F)(F)F)c1 (configuration not stated)	> 100	> 100	> 100	> 100	> 100	> 100	> 100	> 100	> 100	> 100										
COc1cc(/C=C/C(=N\NC(N)=S)c2sc(NNC(C)=O)nc2C)ccc1O	> 100	> 100	> 100	> 100	> 100	> 100	> 100	> 100	> 100	> 100										
C=C1CCOC2(C(O)C(C)(O)CO)NC(=O)C1(O)NC2=O (configuration not stated)	> 100	> 100	> 100	> 100	> 100	> 100	> 100	> 100	> 100	> 100										

Compound	TGI (HOP-92 NSCLC) [µM]	TGI (MOLT-4 leukemia) [µM]	TGI (HCT-15 colon) [µM]	TGI (SW-620 colon) [µM]	TGI (SF-295 CNS) [µM]	TGI (U251 CNS) [µM]	TGI (NCI-H522 lung) [µM]	TGI (OVCAR-4 ovarian) [µM]	TGI (COLO 205 colon) [µM]	TGI (RPMI-8226 leukemia) [µM]	GI50 (HOP-92 NSCLC) [µM]	GI50 (MOLT-4 leukemia) [µM]	GI50 (HCT-15 colon) [µM]	GI50 (SW-620 colon) [µM]	GI50 (SF-295 CNS) [µM]	GI50 (NCI-H522 lung) [µM]	GI50 (OVCAR-4 ovarian) [µM]	GI50 (COLO 205 colon) [µM]	GI50 (RPMI-8226 leukemia) [µM]	GI50 (U251 CNS) [µM]
Cn1cc2c3ccccc3nc-2c2ccccc21	4.3	2.74	4.94	3.89	10.4	6.51	3.18	5.25	3.07	3.94										
C/C(=N\NC(N)=S)c1nc2ncccc2[nH]1	> 100	> 100	> 100	> 100	> 100	> 100	> 100	> 100	> 100	> 100										
COc1cc2c[n+](C)c3c4cc(OC)c(OCc5ccccc5)cc4c(OCc4ccccc4)cc3c2cc1OC	8.51	14.2	> 100	20.5	> 69.3	12.9	3.4	> 55	2.97	> 86										
COc1ccc2c(c1)/c(=C/C#N)c1c3ccccc3[n+](C)n21	5.89	> 57.2	59.8	> 39.2	42.1	40.8	20.4	22.9	8.33	8.03										
COc1ccc(-c2oc3cc(O)c(OC)c(O)c3c(=O)c2O)cc1	> 72.3	12.9	52.2	> 70.1	53.6	30.2	57.8	> 100	> 80.6	31.5										
COc1ccc([I+]c2ccc(OC)cc2)cc1	> 100	> 100	> 100	> 100	> 100	> 100	> 100	> 100	> 100	> 100	3.27	55.4	> 100	6.66	5.07	38.3	3.33	9.34	4.16	7.58
COC(=O)c1c2c(cc3c1CC1(Cc4ccccc4C1)C3)CCC2	> 100	40.2	> 100	39.7	61.7	48.6	35.2	> 100	42.1	45.8										
CN1C(=O)C23CCCC2CC1(c1ccccc1)S3 (configuration not stated)	> 100	> 100	> 100	> 100	> 100	> 100	> 100	> 100	> 100	> 100										
Cc1ccc(NC(=O)C2C3CCC(O3)C2C(=O)O)cc1 (configuration not stated)	> 92.9	> 100	> 65.3	> 45.1	> 100	> 100	> 100	> 100	> 59.8	> 68.8										
O=C1c2cccnc2-c2nccc3c2c1nc1ccccc13	2.54	3.2	0.202	0.237	0.194	0.703	0.281	3.56	4.77	1.17										
O=c1/c(=C/c2ccccn2)sc2nc3cc4c(cc3n12)OCCO4	> 100	> 100	> 100	> 100	> 100	> 100	> 100	> 100	> 100	> 100										
CSc1ncc2c(n1)-c1ccccc1OC2	86.9	> 100	> 100	> 100	> 100	> 100	> 100	> 100	> 100	> 100										
CCOC(=O)c1nc2cc(Cl)ccc2[nH]c1=O	> 100	> 100	> 100	> 100	> 100	> 100	> 100	> 100	> 100	> 100										
CCOC(=O)NN(C(=O)OCC)C(C(=O)c1ccccc1)N(NC(=O)OCC)C(=O)OCC	> 100	> 100	> 100	> 100	> 100	> 100	> 100	> 100	> 100	> 100										
CCOC(=O)N1CCC2(CC1)C[C@@](C(C)=O)(c1ccccc1)C(C)O2 (some centres not stated)	> 100	> 100	> 100	> 100	> 100	> 100	> 100	> 100	> 100	> 100										
Cc1ccnc(Nc2[nH]c(C(=O)c3ccc(Cl)cc3)c(N)c2C(=S)Nc2ccccc2)c1	35.3	48.5	34.2	69.6	36.8	33.2	27.1	29.4	29.9	31.3										
COc1ccc(-c2cc(-c3ccc(Nc4ccnc5cc(Cl)ccc45)cc3)[nH]c(=O)c2C#N)cc1	> 100	> 100	> 100	> 100	> 100	> 100	> 100	> 100	> 100	> 100										
